According to US20230203060A1 (GENFLEET THERAPEUTICS (SHANGHAI) INC., priority 2020, published 2023):
Structures can show the parent of a compound that is named as a salt.

Tests used:
[1] = test system: A549 cells (KRAS G12S mutant); assay: Cell proliferation inhibition experiment, 3D spheroid, CellTiter-Glo, A549; assay type: cell-based, human; conditions: Homo sapiens, A549, 120 h, A549 (KRAS G12S mutant) 3D spheroid, 5 days with compound, CellTiter-Glo; read-out: A549 IC50
Method in brief: (§1)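 IC50 values come from four-parameter fits of proliferation inhibition, measured by CellTiter-Glo after 5-day compound exposure. Spheroids of H358 (800 cells) or A549 (400 cells) were formed overnight in 2% FBS medium; DMSO held at 0.1%, doses spaced 3.16-fold.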

[2] = test system: KRAS G12C mutant NCI-H358 cells; assay: Cell proliferation inhibition experiment, 3D spheroid, CellTiter-Glo, NCI-H358; assay type: cell-based, human; conditions: Homo sapiens, NCI-H358, 120 h, NCI-H358 (KRAS G12C mutant) 3D spheroid, 5 days with compound, CellTiter-Glo; read-out: H358 IC50
Method in brief: as §1

SMILES | IC50 [1] | IC50 [2]
C=CC(=O)N1CCN2C(=O)c3c(N4C[C@@H](O)CC4(C)C)nc(-c4c(F)ccc(Cl)c4O)c(F)c3OC[C@H]2C1 (single isomer, unassigned) [Z341-1] | 11100 nM | 8 nM
C=CC(=O)N1CCN2C(=O)c3c(N4CCN(C)C(=O)[C@@H]4C)nc(-c4c(O)cccc4F)c(Cl)c3OC[C@H]2C1 [Z311-1, (6aR)-8-actyloyl-4-chloro-1-((S)-2,4-dimethyl-3-oxopiperazin-1-yl)-3-(2-fluoro-6-hydroxyphenyl)-6,6a,7,8,9,10-hexahydro-12H-pyrazino[2,1-c]pyrido[3,4-f][1,4]oxazepin-12-one] | > 30000 nM | 10 nM
C=CC(=O)N1CCN2C(=O)c3c(N4CCN(S(C)(=O)=O)C[C@@H]4C)nc(-c4c(O)cccc4F)c(Cl)c3OC[C@H]2C1 [Z318-1, (6aR)-8-acryloyl-1-((S)-2-methyl-4-(methylsulfonyl)piperazin-1-yl)-4-chloro-3-(2-fluoro-6-hydroxyphenyl)-6,6a,7,8,9,10-hexahydro-12H-pyrazino[2,1-c]pyrido[3,4-f][1,4]oxazepin-12-one] | 26300 nM | 5.7 nM
C=CC(=O)N1CCN2C(=O)c3c(N4CCO[C@](C)(CO)C4)nc(-c4c(O)cccc4F)c(Cl)c3OC[C@H]2C1 (single isomer, unassigned) [Z333-1] | > 30000 nM | 26 nM
C=CC(=O)N1CCN2C(=O)c3c(N4C[C@H](OC)CC4(C)C)nc(-c4c(O)cccc4F)c(F)c3OC[C@H]2C1 (single isomer, unassigned) [Z256a-2] | 9270 nM | 1.4 nM
C=CC(=O)N1CCN2C(=O)c3c(N4C[C@H](N(C)C)CC4(C)C)nc(-c4c(O)cccc4F)c(Cl)c3OC[C@H]2C1 (single isomer, unassigned) [Z324-2] | 4650 nM | 4.4 nM
C=CC(=O)N1CCN2C(=O)c3c(N4CC[C@@H](OC)C4(C)C)nc(-c4c(O)cccc4F)c(Cl)c3OC[C@H]2C1 (single isomer, unassigned) [Z241a-2] | 3040 nM | 0.7 nM
C=CC(=O)N1CCN2C(=O)c3c(N4CC[C@H](OC)C4(C)C)nc(-c4c(O)cccc4F)c(Cl)c3OC[C@H]2C1 (single isomer, unassigned) [Z241a-1] | 9550 nM | 1.4 nM
C=CC(=O)N1CCN2C(=O)c3c(N4CC(N(C)CCOC)CC4(C)C)nc(-c4c(O)cccc4F)c(Cl)c3OCC2C1 (single isomer, unassigned) [Z296-1] | 3340 nM | 0.4 nM
C=CC(=O)N1CCN2C(=O)c3c(N4C[C@@H](O)CC4(C)C)nc(-c4c(O)ccc(Cl)c4F)c(F)c3OC[C@H]2C1 (single isomer, unassigned) [Z340-1] | 5510 nM | 5.2 nM
C=CC(=O)N1CCN2C(=O)c3c(N4CC[C@@H](N(C)C)C4(C)C)nc(-c4c(O)cccc4F)c(Cl)c3OC[C@H]2C1 (single isomer, unassigned) [Z360-1] | 2530 nM | 11.8 nM
C=CC(=O)N1CCN2C(=O)c3c(N4CC(C)(C)OC[C@@H]4C)nc(-c4c(O)cccc4F)c(Cl)c3OC[C@H]2C1 [Z276-1, (6aR)-8-acryloyl-4-chloro-3-(2-fluoro-6-hydroxyphenyl)-1-((S)-2,2,5-trimethylmorpholino)-6,6a,7,8,9,10-hexahydro-12H-pyrazino[2,1-c]pyrido[3,4-f][1,4]oxazepin-12-one] | > 30000 nM | 7.6 nM
C=CC(=O)N1CCN2C(=O)c3c(N4C[C@@H](N5CCOCC5)CC4(C)C)nc(-c4c(O)cccc4F)c(Cl)c3OC[C@H]2C1 (single isomer, unassigned) [Z297-2] | 8700 nM | 1 nM
C=CC(=O)N1CCN2C(=O)c3c(N4C[C@](C)(O)CC4(C)C)nc(-c4c(O)cccc4F)c(Cl)c3OC[C@H]2C1 (single isomer, unassigned) [Z243-2] | 3440 nM | 11.1 nM
C=CC(=O)N1CCN2C(=O)c3c(N4C[C@@H](N(C)CCOC)C[C@@H]4C)nc(-c4c(O)cccc4F)c(Cl)c3OC[C@H]2C1 [Z358-1] | > 10000 nM | 4.8 nM
C=CC(=O)N1CCN2C(=O)c3c(N4CCN(C(=O)CC)C[C@@H]4C)nc(-c4c(O)cccc4F)c(Cl)c3OC[C@H]2C1 [Z316-1, (6aR)-8-acryloyl-4-chloro-3-(2-fluoro-6-hydroxyphenyl)-1-((S)-2-methyl-4-propionylpiperazin-1-yl)-6,6a,7,8,9,10-hexahydro-12H-pyrazino[2,1-c]pyrido[3,4-f][1,4]oxazepin-12-one] | > 30000 nM | 1.3 nM
C=CC(=O)N1CCN2C(=O)c3c(N4Cc5cn(C)nc5[C@H]4C)nc(-c4c(O)cccc4F)c(Cl)c3OC[C@H]2C1 (single isomer, unassigned) [Z291-1S, trifluoroacetate] | 9220 nM | 18.4 nM

Continued, values first:

IC50 [1] | IC50 [2] | SMILES
8550 nM | 9 nM | C=CC(=O)N1CCN2C(=O)c3c(N4CCC(N(C)C)C4(C)C)nc(-c4c(O)cccc4F)c(Cl)c3OC[C@H]2C1 (stereo partly drawn) [Z334, (6aR)-8-acryloyl-4-chloro-1-(3-(dimethylamino)-2,2-dimethylpyrrolidin-1-yl)-3-(2-fluoro-6-hydroxyphenyl)-6,6a,7,8,9,10-hexahydro-12H-pyrazino[2,1-c]pyrido[3,4-f][1,4]oxazepin-12-one]
9120 nM | 3 nM | C=CC(=O)N1CCN2C(=O)c3c(N4C[C@H](OC)C[C@@H]4C)nc(-c4c(O)cccc4F)c(Cl)c3OC[C@H]2C1 [Z259a, (6aR)-8-acryloyl-4-chloro-3-(2-fluoro-6-hydroxyphenyl)-1-((2S,4R)-4-methoxy-2-methylpyrrolidin-1-yl)-6,6a,7,8,9,10-hexahydro-12H-pyrazino[2,1-c]pyrido[3,4-f][1,4]oxazepin-12-one]
> 10000 nM | 18 nM | C=CC(=O)N1CCN2C(=O)c3c(N4CCN(C)C5(CC5)C4)nc(-c4c(O)cccc4F)c(Cl)c3OC[C@H]2C1 [Z83, (6aR)-8-acryloyl-4-chloro-3-(2-fluoro-6-hydroxyphenyl)-1-(4-methyl-4,7-diazaspiro[2 .5]octan-7-yl)-6,6a,7,8,9,10-hexahydro-12H-pyrazino[2,1-c]pyrido[3,4-f][1,4]oxazepin-12 (6aH)-one]
10700 nM | 4.5 nM | C=CC(=O)N1CCN2C(=O)c3c(N4CCN(CC)C(C)(C)C4)nc(-c4c(O)cccc4F)c(Cl)c3OC[C@H]2C1 [Z322, (6aR)-8-actyloyl-4-chloro-3-(2-fluoro-6-hydroxyphenyl)-1-(4-ethyl-3,3-dimethylpiperazin-1-yl)-6,6a,7,8,9,10-hexahydro-12H-pyrazino[2,1-c]pyrido[3,4-f][1,4]oxazepin-12-one]
9020 nM | 4 nM | C=CC(=O)N1CCN2C(=O)c3c(N(C)c4c(C(C)C)ncnc4C(C)C)nc(-c4c(O)cccc4F)c(Cl)c3OC[C@H]2C1 [Z20, (6aR)-8-acryloyl-4-chloro-1-((4,6-diisopropylpyrimidin-5-yl)(methyl)amino)-3-(2-fluoro-6-hydroxyphenyl)-6,6a,7,8,9,10-hexahydro-12H-pyrazino[2,1-c]pyrido[3,4-f][1,4]oxazepin-12-one]
7330 nM | 2.1 nM | C=CC(=O)N1CCN2C(=O)c3c(N4CC(C#N)CC4(C)C)nc(-c4c(O)cccc4F)c(Cl)c3OC[C@H]2C1 (stereo partly drawn) [Z275, (6aR)-8-acryloyl-1-(4-cyano-2,2-dimethylpyrrolidin-1-yl)-4-chloro-3-(2-fluoro-6-hydroxyphenyl)-6,6a,7,8,9,10-hexahydro-12H-pyrazino[2,1-c]pyrido[3,4-f][1,4]oxazepin-12-one]
4940 nM | 1.1 nM | C=CC(=O)N1CCN2C(=O)c3c(N4CCC(OC)C4(C)C)nc(-c4c(O)cccc4F)c(Cl)c3OC[C@H]2C1 (stereo partly drawn) [Z241a, (6aR)-8-acryloyl-4-chloro-3-(2-fluoro-6-hydroxyphenyl)-1-(3-methoxy-2,2-dimethylpyrrolidin-1-yl)-6,6a,7,8,9,10-hexahydro-12H-pyrazino[2,1-c]pyrido[3,4-f][1,4]oxazepin-12-one]
19000 nM | 10 nM | C=CC(=O)N1CCN2C(=O)c3c(Nc4c(C(C)C)ncnc4C(C)C)nc(-c4c(O)cccc4F)c(Cl)c3OC[C@H]2C1 [Z15, (6aR)-8-acryloyl-4-chloro-1-((4,6-diisopropylpyrimidin-5-yl)amino)-3-(2-fluoro-6-hydroxyphenyl)-6,6a,7,8,9,10-hexahydro-12H-pyrazino[2,1-c]pyrido[3,4-f][1,4]oxazepin-12-one]
> 30000 nM | 2.4 nM | C=CC(=O)N1CCN2C(=O)c3c(N4C[C@@H](OC)C[C@@H]4C)nc(-c4c(O)cccc4F)c(Cl)c3OC[C@H]2C1 [Z260a, (6aR)-8-acryloyl-4-chloro-3-(2-fluoro-6-hydroxyphenyl)-1-((2S,4S)-4-methoxy-2-methylpyrrolidin-1-yl)-6,6a,7,8,9,10-hexahydro-12H-pyrazino[2,1-c]pyrido[3,4-f][1,4]oxazepin-12-one]
8840 nM | 0.7 nM | C=CC(=O)N1CCN2C(=O)c3c(N4CC(N(C)C5COC5)CC4(C)C)nc(-c4c(O)cccc4F)c(Cl)c3OC[C@H]2C1 (stereo partly drawn) [Z326, (6aR)-8-acryloyl-4-chloro-1-(2,2-dimethyl-4-(methyl(oxetan-3-yl)amino)pyrrolidin-1-yl)-3-(2-fluoro-6-hydroxyphenyl)-6,6a,7,8,9,10-hexahydro-12H-pyrazino[2,1-c]pyrido[3,4-f][1,4]oxazepin-12-one]
3060 nM | 9.5 nM | C=CC(=O)N1CCN2C(=O)c3c(N4CCN(C)C[C@@H]4C)nc(-c4c(F)ccc(Cl)c4O)c(Cl)c3OC[C@H]2C1 [Z342, (6aR)-8-acryloyl-4-chloro-3-(3-chloro-6-fluoro-2-hydroxyphenyl)-1-((S)-2,4-dimethylpiperazin-1-yl)-6,6a,7,8,9,10-hexahydro-12H-pyrazino[2,1-c]pyrido[3,4-f][1,4]oxazepin-12-one]
